Our source for the IC50 values is patent EP1345943B1, “INHIBITORS OF PAPILLOMA VIRUS” (BOEHRINGER INGELHEIM (CANADA) LTD., priority 2000, dated 2002).

This assay concerns the target E1-E2-DNA complex (Human papillomavirus 11, UniProt P04015). In words: E2-dependent E1 DNA binding assay (E1-E2 DNA assay). The conditions noted are these: E1-E2 DNA assay of Example 11, HPV-11. The method, boiled down: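 SPA-format binding of E1 (about 100-200 ng purified) and E2 (8 ng) to a 0.4 ng [33P]-labelled 400 bp HPV-11 origin probe, in 20 mM Tris pH 7.6, 100 mM NaCl, 1 mM DTT, 1 mM EDTA, for 1 h at room temperature. Complex captured 1 h with anti-E1 C-terminal antiserum on protein A-SPA beads and counted by scintillation; IC50 derived.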

Each structure is given as a SMILES string.

A word on the IC50: it is the concentration at which inhibition is half-maximal. A lower IC50 goes with greater potency.

Sequence of E1-E2-DNA complex (P04015 whole entry, one chain of several): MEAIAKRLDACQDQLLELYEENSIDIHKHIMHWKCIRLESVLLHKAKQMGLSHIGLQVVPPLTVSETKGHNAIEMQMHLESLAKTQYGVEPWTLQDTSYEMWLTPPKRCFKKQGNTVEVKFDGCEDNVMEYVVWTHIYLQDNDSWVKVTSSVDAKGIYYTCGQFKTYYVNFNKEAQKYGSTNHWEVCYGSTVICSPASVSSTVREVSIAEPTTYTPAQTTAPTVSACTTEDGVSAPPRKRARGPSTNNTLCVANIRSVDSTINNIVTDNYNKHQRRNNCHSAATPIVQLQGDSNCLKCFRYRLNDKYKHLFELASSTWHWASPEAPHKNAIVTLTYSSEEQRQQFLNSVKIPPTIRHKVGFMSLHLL

Consider `N#Cc1cccc(C2OC3(C(=O)c4ccccc4C3=O)C(C(=O)O)C2C(=O)Nc2ccc3c(c2)OCO3)c1` (centres unmarked) [Compound 1080], for which the IC50 was in the range of 5 to 50 µM.

As to `Cc1cccc(NC(=O)C2C(c3ccc(Cl)cc3)OC3(C(=O)c4ccccc4C3=O)C2C(=O)O)c1` (centres unmarked) [Compound 1012], the IC50 was in the range of 5 to 50 µM.

As for `O=C(Nc1ccc(F)c(F)c1)C1C(c2ccc(F)c(Cl)c2)OC2(C(=O)c3ccccc3C2=O)C1C(=O)O` (centres unmarked) [Compound 1122], the IC50 was 5 to 50 µM.

`O=C(NC1CC1c1ccccc1)C1C(c2ccc(Br)c(Br)c2)OC2(C(=O)c3ccccc3C2=O)C1C(=O)O` (single isomer, unassigned) [Compound 1088] gave an IC50 of 0.5 to 5 µM.

For the compound `O=C(Nc1ccccc1F)C1C(c2ccc(Cl)c(Cl)c2)OC2(C(=O)c3ccccc3C2=O)C1C(=O)O` (centres unmarked) [Compound 1125], the IC50 was < 0.5 µM. To `O=C(NC1CC1c1ccccc1)C1C(c2ccc(Cl)c(Cl)c2)OC2(C(=O)c3ccccc3C2=O)C1C(=O)O` (centres unmarked) [Compound 1066] belongs < 0.5 µM; to `O=C(Nc1ccccc1Cl)C1C(c2ccc(Cl)cc2)OC23C(=O)c4ccccc4C2(O)OC(=O)C13` (racemic) [Compound 3006], 5 to 50 µM. In the case of `O=C(Nc1ccc(-c2csnn2)cc1)C1C(c2ccc(F)c(F)c2)OC2(C(=O)c3ccccc3C2=O)C1C(=O)O` (centres unmarked) [Compound 1083] it was 0.5 to 5 µM; in that of `Cc1cccc(N2C(=O)C3C(c4ccc(Cl)cc4)OC4(C(=O)c5ccccc5C4=O)C3C2=O)c1` (centres unmarked) [Compound 2010], 5 to 50 µM; in that of `O=C(Nc1ccc2c(c1)OCO2)C1C(c2ccc(C(F)(F)F)cc2)OC2(C(=O)c3ccccc3C2=O)C1C(=O)O` (centres unmarked) [Compound 1016], 5 to 50 µM. `O=C(Nc1ccc2c(c1)OCO2)C1C(c2ccc(Cl)c(Cl)c2)OC2(C(=O)c3ccccc3C2=O)C1C(=O)O` (racemic) [Compound 5001] showed an IC50 of 0.5 to 5 µM. In the case of `COc1ccc(N2C(=O)C3C(c4ccc(Cl)cc4)OC4(C(=O)c5ccccc5C4=O)C3C2=O)cc1OC` (centres unmarked) [Compound 2002] it was 5 to 50 µM.

The compound `Cc1ccc2c(c1)C(=O)C1(OC(c3ccc(Br)c(Br)c3)C(C(=O)Nc3ccc(-c4csnn4)cc3)C1C(=O)O)C2=O` (single isomer, unassigned) [Compound A1010] came in with an IC50 of 0.5 to 5 µM. In the case of `CC(C)c1ccc(C2OC3(C(=O)c4ccccc4C3=O)C(C(=O)O)C2C(=O)Nc2ccc3c(c2)OCO3)cc1` (centres unmarked) [Compound 1008] it was 5 to 50 µM; in that of `O=C(Nc1ccc(F)cc1F)C1C(c2ccc(Cl)cc2)OC2(C(=O)c3ccccc3C2=O)C1C(=O)O` (centres unmarked) [Compound 1009], 5 to 50 µM; in that of `Cc1ccc2c(c1)C(=O)C1(OC(c3ccc(Br)c(Br)c3)C(C(=O)Nc3ccc(-c4csnn4)cc3)C1C(=O)O)C2=O` (single isomer, unassigned) [Compound A1011], < 0.5 µM. In the case of `O=C(Nc1ccc2c(c1)OCO2)C1C(c2ccc(Cl)c(Cl)c2)OC2(C(=O)c3ccccc3C2=O)C1C(=O)O` (centres unmarked) [Compound 1002] it was < 0.5 µM; in that of `O=C(Nc1ccc(F)c(F)c1)C1C(c2ccc(Cl)c(Cl)c2)OC2(C(=O)c3ccccc3C2=O)C1C(=O)O` (centres unmarked) [Compound 1111], 0.5 to 5 µM. The compound `Cc1ccc2c(c1)C(=O)C1(OC(c3ccc(Cl)c(Cl)c3)C(C(=O)Nc3ccc4c(c3)OCO4)C1C(=O)O)C2=O` (single isomer, unassigned) [Compound A1004] yielded an IC50 of 5 to 50 µM. In the case of `CC(=O)c1ccc(NC(=O)C2C(c3ccc(Cl)c(Cl)c3)OC3(C(=O)c4ccc(F)cc4C3=O)C2C(=O)O)cc1` (centres unmarked) [Compound 1106] it was 0.5 to 5 µM; in that of `O=C1C2C(c3ccc(Br)c(Br)c3)OC3(C(=O)c4ccccc4C3=O)C2C(=O)N1c1ccc(N2CCOCC2)cc1` (centres unmarked) [Compound 2023], < 0.5 µM. To `O=C(NCc1ccc2c(c1)OCO2)C1C(c2ccc(Cl)c(Cl)c2)OC2(C(=O)c3ccccc3C2=O)C1C(=O)O` (centres unmarked) [Compound 6001] belongs 5 to 50 µM; to `COC(=O)C1C(C(=O)Nc2ccc3c(c2)OCO3)C(c2ccc(Cl)c(Cl)c2)OC12C(=O)c1ccccc1C21CO1` (racemic) [Compound 7001], 5 to 50 µM. Consider `Cc1ccc2c(c1)C(=O)C1(OC(c3ccc(Br)c(Br)c3)C(C(=O)Nc3ccc(N4CCOCC4)cc3)C1C(=O)O)C2=O` (single isomer, unassigned) [Compound A1014], for which the IC50 was < 0.5 µM.

As to `O=C(Nc1ccc(NC(=O)C2C(c3ccc(Cl)c(Cl)c3)OC3(C(=O)c4ccccc4C3=O)C2C(=O)O)cc1)c1ccccc1` (centres unmarked) [Compound 1057], the IC50 lay within 0.5 to 5 µM. To `Cc1cccc(C2OC3(C(=O)c4ccccc4C3=O)C3C(=O)N(c4ccc5c(c4)OCO5)C(=O)C23)c1` (centres unmarked) [Compound 2014] belongs 5 to 50 µM; to `Cc1ccc2c(c1)C(=O)C1(OC(c3ccc(Cl)c(Cl)c3)C(C(=O)Nc3ccc4c(c3)OCO4)C1C(=O)O)C2=O` (single isomer, unassigned) [Compound A1005], < 0.5 µM. Turning to `CC(=O)c1ccc(NC(=O)C2C(c3ccc(Cl)c(Cl)c3)OC3(C(=O)c4ccc(Cl)cc4C3=O)C2C(=O)O)cc1` (centres unmarked) [Compound 1116], the IC50 was in the range of 5 to 50 µM.

`O=C(Nc1ccc(N2CCOCC2)cc1)C1C(c2ccc(Br)c(Br)c2)OC2(C(=O)c3ccccc3C2=O)C1C(=O)O` (single isomer, unassigned) [Compound A1012] gave an IC50 of 5 to 50 µM. In the case of `O=C(NN1CCOCC1)C1C(c2ccc(F)c(Cl)c2)OC2(C(=O)c3ccccc3C2=O)C1C(=O)O` (centres unmarked) [Compound 1093] it was 5 to 50 µM; in that of `O=C(Nc1ccc(N2CCOCC2)cc1)C1C(c2ccc(Br)c(Br)c2)OC2(C(=O)c3ccccc3C2=O)C1C(=O)O` (racemic) [Compound 1078], < 0.5 µM; in that of `CC(NC(=O)C1C(c2ccc(Cl)c(Cl)c2)OC23C(=O)c4ccccc4C2(O)OC(=O)C13)c1ccccc1` (centres unmarked) [Compound 3100], 5 to 50 µM. `O=C(Nc1cccc(Cl)c1)C1C(c2ccc(Br)c(Br)c2)OC2(C(=O)c3ccccc3C2=O)C1C(=O)O` (centres unmarked) [Compound 1119]: the IC50 is < 0.5 µM. As for `CC(=O)Nc1ccc(NC(=O)C2C(c3ccc(Cl)c(Cl)c3)OC3(C(=O)c4ccccc4C3=O)C2C(=O)O)cc1` (centres unmarked) [Compound 1035], the IC50 was < 0.5 µM. To `Cc1ccc(C2OC3(C(=O)c4ccccc4C3=O)C(C(=O)O)C2C(=O)Nc2cnc3ccccc3c2)cc1C` (centres unmarked) [Compound 1071] belongs 5 to 50 µM. With `CC(=O)c1ccc(N2C(=O)C3C(c4ccc(Cl)cc4)OC4(C(=O)c5ccccc5C4=O)C3C2=O)cc1` (centres unmarked) [Compound 2003], the IC50 is 5 to 50 µM. In the case of `O=C(Nc1ccc2c(c1)OCO2)C1C(c2ccc(Cl)cc2)OC2(C(=O)c3cccc(F)c3C2=O)C1C(=O)O` (centres unmarked) [Compound 1019] it was 5 to 50 µM; in that of `CSc1ccc(NC(=O)C2C(c3ccc(Br)c(Br)c3)OC3(C(=O)c4ccccc4C3=O)C2C(=O)O)cc1` (centres unmarked) [Compound 1081], < 0.5 µM. In the case of `O=C(CNCc1ccc(N2C(=O)C3C(c4ccc(Cl)c(Cl)c4)OC4(C(=O)c5ccccc5C4=O)C3C2=O)cc1)NCCNc1cccc2c(S(=O)(=O)O)cccc12` (centres unmarked) [Compound 2022] it was 5 to 50 µM; in that of `CC(=O)c1ccc(NC(=O)C2C(c3ccc(Cl)c(Cl)c3)OC3(C(=O)c4ccccc4C3=O)C2C(=O)O)cc1` (racemic) [Compound 1047], 0.5 to 5 µM; in that of `O=C(Nc1cc2ccccc2cn1)C1C(c2ccc(Cl)c(Cl)c2)OC2(C(=O)c3ccccc3C2=O)C1C(=O)O` (centres unmarked) [Compound 1040], 0.5 to 5 µM.
